Among the data in ChEMBL document CHEMBL1127134, “Synthesis and antibacterial activity of (1R,5R,6R)-2-tert-butyl-6-(1-hydroxyethyl)oxapenem-3-carboxylic acid” (1993) are MIC values, retold here.

Format in all cases: functional
Assay [1] has as its system Staphylococcus aureus. The experiment in a line: Minimum inhibitory concentration required for the antibacterial activity against Staphylococcus aureus 13N Munchen.
Assay [2] has as its system Bacteroides fragilis. The experiment in a line: Minimum inhibitory concentration required for the antibacterial activity against Bacillus fragilis 010848.
The test system of assay [3] is Parabacteroides distasonis. The experiment in a line: Minimum inhibitory concentration required for the antibacterial activity against Bacillus distasonis Heidelberg.
Another assay relates to Clostridium sporogenes. The experiment in a line: Minimum inhibitory concentration required for the antibacterial activity against Clostridium sporogenes.
In assay [4] the test system is Staphylococcus aureus. The experiment in a line: Minimum inhibitory concentration required for the antibacterial activity against Staphylococcus aureus 41h Belgium.
A further assay relates to Thomasclavelia ramosa. The experiment in a line: Minimum inhibitory concentration required for the antibacterial activity against Clostridium ramosum DSM 1402.
The subject of another assay is Klebsiella. The experiment in a line: Minimum inhibitory concentration required for the antibacterial activity against Klebsiella 6097.
Assay [5] concerns Bacteroides fragilis. The experiment in a line: Minimum inhibitory concentration required for the antibacterial activity against Bacillus fragilis 2034/35 Kr 43.
Assay [6] concerns Bacteroides fragilis. The experiment in a line: Minimum inhibitory concentration required for the antibacterial activity against Bacillus fragilis DSM 2151.
The subject of the next assay is Phocaeicola vulgatus. The experiment in a line: Minimum inhibitory concentration required for the antibacterial activity against Bacillus valgatus Kr III.
The subject of assay [7] is Proteus vulgaris. The experiment in a line: Minimum inhibitory concentration required for the antibacterial activity against Proteus vulgaris 1017.
The subject of another assay is Anaerococcus prevotii. The experiment in a line: Minimum inhibitory concentration required for the antibacterial activity against Peptococcus prevotii DSM 20548.
For assay [8], the system named is Prevotella melaninogenica. The experiment in a line: Minimum inhibitory concentration required for the antibacterial activity against Bacillus melaninogenicus Kr.
Assay [9] relates to Staphylococcus aureus. The experiment in a line: Minimum inhibitory concentration required for the antibacterial activity against Staphylococcus aureus 17N Munchen.
The test system of assay [10] is Prevotella melaninogenica. The experiment in a line: Minimum inhibitory concentration required for the antibacterial activity against Bacillus melaninogenicus Heidelberg.
In another assay the test system is Proteus mirabilis. The experiment in a line: Minimum inhibitory concentration required for the antibacterial activity against Proteus mirabilis 1235.
For assay [11], the system named is Bacteroides fragilis. The experiment in a line: Minimum inhibitory concentration required for the antibacterial activity against Bacillus fragilis 4891/91 Kr.
In assay [12] the test system is Proteus vulgaris. The experiment in a line: Minimum inhibitory concentration required for the antibacterial activity against Proteus vulgaris 9023.
In another assay the test system is Micrococcus luteus. The experiment in a line: Minimum inhibitory concentration required for the antibacterial activity against Micrococcus luteus.
In a further assay the test system is Pseudomonas aeruginosa. The experiment in a line: Minimum inhibitory concentration required for the antibacterial activity against Pseudomonas aeruginosa F41.
The subject of assay [13] is Bacteroides fragilis. The experiment in a line: Minimum inhibitory concentration required for the antibacterial activity against Bacillus fragilis 4661 Kr.
The next assay concerns Serratia. The experiment in a line: Minimum inhibitory concentration required for the antibacterial activity against Serratia 16001.

Bounds are passed on as bounds.

As to `C[C@@H](O)[C@H]1C(=O)N2C(C(=O)[O-])=C(C(C)(C)C)O[C@H]12.[K+]`, the MIC – broadly, the lowest concentration found to suppress growth – worked out at 1.56 µg/mL against Staphylococcus aureus [1]; 2 µg/mL against Bacteroides fragilis [2]; 8 µg/mL in assay [3]; 0.5 µg/mL in the assay on Clostridium sporogenes; 12.5 µg/mL against Staphylococcus aureus [4]; 1 µg/mL against Thomasclavelia ramosa. In addition, the MIC in the assay on Klebsiella amounted to 16 µg/mL; against Bacteroides fragilis [5], 2 µg/mL; against Bacteroides fragilis [6], 1 µg/mL; with Phocaeicola vulgatus, 1 µg/mL; in the assay on Proteus vulgaris [7], 1 µg/mL; in the assay with Anaerococcus prevotii, 2 µg/mL. Also, the MIC in assay [8] was 0.5 µg/mL; against Staphylococcus aureus [9], 1.56 µg/mL; in [10], 4 µg/mL; against Proteus mirabilis it was 4 µg/mL; against Bacteroides fragilis [11], 2 µg/mL; in the assay on Proteus vulgaris [12], 1 µg/mL. Moreover, the MIC in the assay on Micrococcus luteus is at most 0.06 µg/mL; in the assay with Pseudomonas aeruginosa, over 128 µg/mL; in the assay with Bacteroides fragilis [13], 2 µg/mL; in the assay on Serratia it was 64 µg/mL.
